Laboratory results published in patent publication US9630991B2, “βsheet tapes ribbons in tissue engineering” (University of Leeds, priority 2002, dated 2017).
Where a SMILES comes first, the peptide text is derived from it. [ ]: non-standard residue; d: D form. Orn = NCCC[C@H](N)C(=O)O

Columns and labels:
[1] = Net charge of peptide at pH 7.5 in physiological solution; format: physicochemical; details: per peptide, pH 7.5, physiological solution
[2] = Fibril dimensions measured from TEM images; format: physicochemical; details: for L, fibril contour length / h, twist pitch / l, fibril persistence length / wn, width of the fibril at its narrowest point / ww, width of the fibril at its widest point: physiological conditions, TEM
Procedure: For, electron microscopy, samples were examined using a Phillips CM10 TEM at 80-100 kV accelerating voltage. Gels were diluted to a peptide concentration of 20 μM seconds before application to a glow-discharged, carbon-coated, copper grid followed by coating with uranyl acetate solution (4% w/v in water).
The dimensions of the fibrils formed by these peptides are given in Table 2, and TEM images from which these measurements were obtained are shown in FIGS. 6A-6D. These dimensions are—the length of a peptide fibril (contour length, L), the length of a peptide fibril before it curves (persistence length, l), the length of a full twist of a peptide fibril (twist pitch, h) the width of a fibril at its widest point (ww) and the width of the fibril at its narrowest point as it twists (wn).

[3] = Self-assembly and gel formation in physiological solution / cell media; format: physicochemical
From the text: A large number (dozens) of systematically varied peptides (typically 7-30 residues long) have been studied for soluble polymer and gel formation in cell media. […] Only peptides with a approximate net +2 or −2 charge per peptide at physiological pH=7.5, were able to form soluble polymers and gel cell media (The amount of net charge necessary per peptide to keep its polymers soluble in cell media will vary depending on the overall surface properties and solubility of the peptide tapes it forms). […] These peptides retained a predominantly monomeric state and their solutions in cell media were fluids up to around 40 mg/ml peptide concentration.
The rationally designed peptide P11-8 (Tables 1A and 1C) was dissolved in 145 mM NaCl, pH˜7.5 aqueous solution (the ionic strength and pH values of the solution were similar to those present in cell culture medium) or it was added directly in cell culture medium.
The fibrils of P11-8 entwined partly with each other forming a three dimensional network and turned the peptide solution in cell media into a homogeneous self-supporting gel at peptide concentration higher than 15 mg/ml.
The gel could be temporarily broken by mechanical agitation. The time it took the gel to reform depended on the peptide concentration, ranging from seconds for a 35 mg/ml peptide gel, to hours for a 15 mg/ml peptide gel.

[4] = test system: tissue surrounding the injection site; design: species or system mice; details: mouse, in vivo
From the text: Injection of P11-3 and P11-8 peptide solutions in cell media in mice has shown no effect of the presence of the peptide in the tissue surrounding the injection site as judged by histology after two and eight weeks following the peptide injection.

[5] = Self-assembly and gel formation in physiological solution / cell media; format: physicochemical; remark: listed apart in the source
[6] = test system: L929 murine fibroblasts; assay: Contact cytotoxicity testing; format: cell-based; details: peptide gels in culture with L929 fibroblasts
From the text: L929 murine fibroblasts growing in contact with the negative collagen control are shown in FIG. 5B and the positive control of cyanoacrylate adhesive is shown in FIG. 5A.

[7] = test system: L929 fibroblast cells; assay: Cell density in peptide gels by ATPLite assay; format: cell-based, murine
From the text: After establishing that the peptides tested were not cytotoxic when placed in culture with L929 fibroblast cells, the next stage was assessing the suitability of the collagen peptide gels for use in supporting cell proliferation.

[8] = Persistence length of tapes, ribbons and fibrils in water; format: physicochemical
From the text: The tapes, ribbons, fibrils and fibres are increasingly more rigid structures.

[9] = Isotropic to nematic transition concentration; format: physicochemical; details: ribbons of P11-1, fibrils of P11-2
Procedure: We have also shown that above a certain peptide concentration cI/N (isotropic to nematic transition concentration) the semi-rigid ribbons, fibrils and fibres can align and thus transform their initially isotropic solution into a nematic liquid crystalline solution. The transition of the solution to the nematic liquid crystalline state happens at lower concentrations for more rigid polymers. For example, the nematic transition for solutions of ribbons of P11-1 peptide occurs at cI/N≈13 mM, whilst the nematic transition for solutions of the much more rigid fibrils of P11-2 peptide occurs at cI/N≈0.9 mM.

[10] = Geometrical sizes from X-ray diffraction data and molecular modelling; format: physicochemical
From the text: FIG. 2. Model of hierarchical self-assembly of beta-sheet forming peptides. Each peptide in beta-strand conformation, is depicted as a chiral rod-like unit (a). Local arrangements (c-f) and the corresponding global equilibrium conformations (c′-f′) for the hierarchical self-assembling structures formed in solutions of chiral molecules (a), which have complementary donor and acceptor groups, shown by arrows, via which they interact and align to form tapes (c). The black and the white surfaces of the rod (a) are reflected in the sides of the helical tape (c) which is chosen to curl towards the black side (c′). The outer sides of the twisted ribbon (d), of the fibril (e) and of the fibre (f) are all white. One of the fibrils in the fibre (f′) is drawn with darker shade for clarity. (e) & (f) show the front views of the edges of fibrils and fibres, respectively. Geometrical sizes (the numbers in parentheses show the values of the corresponding geometric sizes for P11-I and P11-II peptides, based on X-ray diffraction data and molecular modelling): inter-rod separation in a beta-sheet tape b2 (b2=0.47 nm); tape width, equal to the length of a rod, b1 (b1=4 nm); inter-ribbon distance in the fibril, α (α=1.6-2 nm for P11-I, and α=2-2.4 nm for P11-II).

[11] = 145 mM NaCl, pH~7.5 or cell culture medium

| Compound | Net charge at pH 7.5 [1] | L, fibril contour length [2] | h, twist pitch [2] | l, fibril persistence length [2] | wn, width of the fibril at its narrowest point [2] | ww, width of the fibril at its widest point [2] | contact cytotoxicity [6] | other results |
| --- | --- | --- | --- | --- | --- | --- | --- | --- |
| CC(=O)N[C@@H](CCC(N)=O)C(=O)N[C@@H](CCC(N)=O)C(=O)N[C@@H](CCCNC(=N)N)C(=O)N[C@@H](Cc1ccccc1)C(=O)N[C@@H](CCCN)C(=O)N[C@@H](Cc1c[nH]c2ccccc12)C(=O)N[C@@H](CCCN)C(=O)N[C@@H](Cc1ccccc1)C(=O)N[C@@H](CCC(=O)O)C(=O)N[C@@H](CCC(N)=O)C(=O)N[C@@H](CCC(N)=O)C(N)=O [Peptide P11-8, CH3CO-Q-Q-R-F-O-W-O-F-E-Q-Q-NH2] (Ac-QQRF[Orn]W[Orn]FEQQ-NH2) | +2 | 1.2-6.3 μm | 140-320 nm | 0.8-2.5 μm | 4-11 nm | 13-19 nm | – | fibril full pitch [2, 11]: 200-300 nm; fibril length [2, 11]: several micrometers; fibril narrow width [2, 11]: 4-5 nm; fibril wide width [2, 11]: 12-15 nm; time for gel to reform after mechanical agitation ([3]; 15 mg/ml peptide gel): hours; time for gel to reform after mechanical agitation ([3]; 35 mg/ml peptide gel): seconds; fibrils and gels after sterilisation using an autoclave ([3]; cell media): reform after sterilisation using an autoclave; peptide concentration for homogeneous self-supporting gel ([3]; cell media): higher than 15 mg/ml; gel stability ([3]; room temperature, cell media): stable for at least several weeks; effect on tissue surrounding the injection site by histology [4]: no effect; conformation / solution state in water ([5]; pH<7 in water): monomeric random coil conformation; self-assembly in low ionic strength media ([5]; pH=7.5, peptide concentrations up to 10 mg/ml): does not self-assemble |
| CC(=O)N[C@@H](CC(N)=O)C(=O)N[C@@H](CC(N)=O)C(=O)N[C@@H](CCCNC(=N)N)C(=O)N[C@@H](Cc1ccccc1)C(=O)N[C@@H](CCC(=O)O)C(=O)N[C@@H](Cc1c[nH]c2ccccc12)C(=O)N[C@@H](CCC(=O)O)C(=O)N[C@@H](Cc1ccccc1)C(=O)N[C@@H](CCC(=O)O)C(=O)N[C@@H](CC(N)=O)C(=O)N[C@@H](CC(N)=O)C(N)=O [Peptide P11-15, CH3CO-N-N-R-F-E-W-E-F-E-N-N-NH2] (Ac-NNRFEWEFENN-NH2) | −2 | 1.3-4 μm | 118-220 nm | 0.3-1.2 μm | 5-7 nm | 7-10 nm | growing in contact with and onto the peptide gel matrix | support of cell growth ([7]; L929 cells in peptide gels): moderately successful in supporting cell growth; macroscopic appearance of gel ([7]; at end of cell culture experiment): little sign of macroscopic degradation |
| CC(=O)N[C@@H](CC(N)=O)C(=O)N[C@@H](CC(N)=O)C(=O)N[C@@H](CCCNC(=N)N)C(=O)N[C@@H](Cc1ccccc1)C(=O)N[C@@H](CCCN)C(=O)N[C@@H](Cc1c[nH]c2ccccc12)C(=O)N[C@@H](CCCN)C(=O)N[C@@H](Cc1ccccc1)C(=O)N[C@@H](CCC(=O)O)C(=O)N[C@@H](CC(N)=O)C(=O)N[C@@H](CC(N)=O)C(N)=O [Peptide P11-16, CH3CO-N-N-R-F-O-W-O-F-E-N-N-NH2] (Ac-NNRF[Orn]W[Orn]FENN-NH2) | +2 | 1.2-3.9 μm | 109-220 nm | 0.5-1.6 μm | 5-10 nm | 11-20 nm | growing in contact with and onto the peptide gel matrix | – |
| QQR^+FQWQFE^-QQ (QQRFQWQFEQQ; self assembling peptide P11-2) | 0 | – | – | – | – | – | – | persistence length of fibrils [8]: 20-70 μm; persistence length of ribbons [8]: 1 μm; cI/N, isotropic to nematic transition concentration [9]: ≈ 0.9 mM; inter-ribbon distance in the fibril, α [10]: 2-2.4 nm; inter-rod separation in a beta-sheet tape b2 [10]: 0.47 nm; tape width b1 [10]: 4 nm |
